Reference: ChEMBL document CHEMBL3991601, “The target landscape of clinical kinase drugs” (Science, 2017)
Active and inactive are the calls of the source. Cut-off read from the data, not from the text of the source, for most assays here: actives have a measured Kd and inactives only a lower limit.

What was measured:
[1] = biological target: Protein kinase C delta type (Homo sapiens, UniProt Q05655)
[2] = biological target: T1, Dual specificity mitogen-activated protein kinase kinase 6 (Homo sapiens, UniProt P52564)
T1 sequence (P52564 whole entry): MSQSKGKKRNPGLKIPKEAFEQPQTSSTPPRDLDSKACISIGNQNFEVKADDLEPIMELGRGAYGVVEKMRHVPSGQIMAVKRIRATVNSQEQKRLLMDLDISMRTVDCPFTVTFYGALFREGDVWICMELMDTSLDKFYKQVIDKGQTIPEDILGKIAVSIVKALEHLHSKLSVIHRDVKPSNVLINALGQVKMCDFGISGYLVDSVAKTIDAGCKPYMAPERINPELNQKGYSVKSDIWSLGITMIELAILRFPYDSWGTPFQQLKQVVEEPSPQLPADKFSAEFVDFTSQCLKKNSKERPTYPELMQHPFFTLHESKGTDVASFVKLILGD

[3] = biological target: Cyclin-dependent kinase 5 (Homo sapiens, UniProt Q00535)
Cyclin-dependent kinase 5, sequence (Q00535 whole entry): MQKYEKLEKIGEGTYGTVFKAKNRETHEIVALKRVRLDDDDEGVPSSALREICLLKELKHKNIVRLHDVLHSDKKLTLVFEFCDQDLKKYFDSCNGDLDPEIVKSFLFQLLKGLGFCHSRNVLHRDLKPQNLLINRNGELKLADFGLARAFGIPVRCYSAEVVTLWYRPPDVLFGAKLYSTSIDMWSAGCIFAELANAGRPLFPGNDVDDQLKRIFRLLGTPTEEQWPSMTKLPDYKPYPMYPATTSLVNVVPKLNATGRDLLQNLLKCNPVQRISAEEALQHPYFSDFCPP

[4] = biological target: T2, Inhibitor of nuclear factor kappa-B kinase subunit epsilon (Homo sapiens, UniProt Q14164)
T2 sequence (Q14164 whole entry): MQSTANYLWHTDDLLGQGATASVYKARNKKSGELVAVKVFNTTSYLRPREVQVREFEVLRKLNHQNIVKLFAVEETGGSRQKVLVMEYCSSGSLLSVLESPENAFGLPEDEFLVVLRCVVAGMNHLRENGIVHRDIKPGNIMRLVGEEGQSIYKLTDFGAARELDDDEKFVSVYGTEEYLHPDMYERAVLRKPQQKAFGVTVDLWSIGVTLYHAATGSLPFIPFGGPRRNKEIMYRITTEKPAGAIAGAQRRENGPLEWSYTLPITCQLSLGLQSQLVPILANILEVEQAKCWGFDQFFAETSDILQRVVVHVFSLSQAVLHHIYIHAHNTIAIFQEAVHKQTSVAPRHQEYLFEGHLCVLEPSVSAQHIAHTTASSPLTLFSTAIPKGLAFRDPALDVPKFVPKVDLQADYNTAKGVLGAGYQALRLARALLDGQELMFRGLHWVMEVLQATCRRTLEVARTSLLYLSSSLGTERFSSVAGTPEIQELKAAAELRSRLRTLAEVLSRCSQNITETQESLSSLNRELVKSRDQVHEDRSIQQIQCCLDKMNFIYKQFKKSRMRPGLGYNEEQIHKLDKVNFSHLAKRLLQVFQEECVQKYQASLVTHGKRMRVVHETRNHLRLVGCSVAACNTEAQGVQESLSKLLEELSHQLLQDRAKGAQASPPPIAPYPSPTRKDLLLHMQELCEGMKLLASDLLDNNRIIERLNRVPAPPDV

[5] = biological target: Serine/threonine-protein kinase SIK2 (Homo sapiens, UniProt Q9H0K1)
Serine/threonine-protein kinase SIK2, sequence (Q9H0K1 whole entry): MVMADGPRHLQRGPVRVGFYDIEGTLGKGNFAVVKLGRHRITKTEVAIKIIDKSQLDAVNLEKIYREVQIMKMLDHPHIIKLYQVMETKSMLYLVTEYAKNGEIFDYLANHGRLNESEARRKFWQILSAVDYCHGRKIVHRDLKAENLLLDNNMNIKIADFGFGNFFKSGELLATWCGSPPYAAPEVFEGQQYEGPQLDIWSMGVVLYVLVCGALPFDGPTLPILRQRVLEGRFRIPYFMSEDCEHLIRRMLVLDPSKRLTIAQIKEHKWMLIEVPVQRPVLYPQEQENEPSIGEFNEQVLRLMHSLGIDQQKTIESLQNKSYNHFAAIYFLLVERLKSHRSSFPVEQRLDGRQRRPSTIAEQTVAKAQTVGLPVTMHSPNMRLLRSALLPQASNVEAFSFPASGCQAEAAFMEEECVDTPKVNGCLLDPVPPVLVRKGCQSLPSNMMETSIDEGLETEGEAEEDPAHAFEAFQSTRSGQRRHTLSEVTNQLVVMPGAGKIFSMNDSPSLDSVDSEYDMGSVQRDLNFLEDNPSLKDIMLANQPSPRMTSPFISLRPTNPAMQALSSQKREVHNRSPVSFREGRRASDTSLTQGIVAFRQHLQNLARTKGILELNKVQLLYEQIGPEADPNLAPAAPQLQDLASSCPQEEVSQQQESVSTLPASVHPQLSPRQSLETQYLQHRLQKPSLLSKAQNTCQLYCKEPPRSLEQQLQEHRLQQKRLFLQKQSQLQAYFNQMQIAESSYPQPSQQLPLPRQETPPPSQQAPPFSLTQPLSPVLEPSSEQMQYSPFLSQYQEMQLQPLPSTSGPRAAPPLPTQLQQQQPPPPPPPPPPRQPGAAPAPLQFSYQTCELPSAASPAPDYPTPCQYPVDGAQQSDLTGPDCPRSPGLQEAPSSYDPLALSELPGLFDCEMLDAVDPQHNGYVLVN

[6] = biological target: Tyrosine-protein kinase JAK1 (Homo sapiens, UniProt P23458)
Tyrosine-protein kinase JAK1, sequence (P23458 whole entry): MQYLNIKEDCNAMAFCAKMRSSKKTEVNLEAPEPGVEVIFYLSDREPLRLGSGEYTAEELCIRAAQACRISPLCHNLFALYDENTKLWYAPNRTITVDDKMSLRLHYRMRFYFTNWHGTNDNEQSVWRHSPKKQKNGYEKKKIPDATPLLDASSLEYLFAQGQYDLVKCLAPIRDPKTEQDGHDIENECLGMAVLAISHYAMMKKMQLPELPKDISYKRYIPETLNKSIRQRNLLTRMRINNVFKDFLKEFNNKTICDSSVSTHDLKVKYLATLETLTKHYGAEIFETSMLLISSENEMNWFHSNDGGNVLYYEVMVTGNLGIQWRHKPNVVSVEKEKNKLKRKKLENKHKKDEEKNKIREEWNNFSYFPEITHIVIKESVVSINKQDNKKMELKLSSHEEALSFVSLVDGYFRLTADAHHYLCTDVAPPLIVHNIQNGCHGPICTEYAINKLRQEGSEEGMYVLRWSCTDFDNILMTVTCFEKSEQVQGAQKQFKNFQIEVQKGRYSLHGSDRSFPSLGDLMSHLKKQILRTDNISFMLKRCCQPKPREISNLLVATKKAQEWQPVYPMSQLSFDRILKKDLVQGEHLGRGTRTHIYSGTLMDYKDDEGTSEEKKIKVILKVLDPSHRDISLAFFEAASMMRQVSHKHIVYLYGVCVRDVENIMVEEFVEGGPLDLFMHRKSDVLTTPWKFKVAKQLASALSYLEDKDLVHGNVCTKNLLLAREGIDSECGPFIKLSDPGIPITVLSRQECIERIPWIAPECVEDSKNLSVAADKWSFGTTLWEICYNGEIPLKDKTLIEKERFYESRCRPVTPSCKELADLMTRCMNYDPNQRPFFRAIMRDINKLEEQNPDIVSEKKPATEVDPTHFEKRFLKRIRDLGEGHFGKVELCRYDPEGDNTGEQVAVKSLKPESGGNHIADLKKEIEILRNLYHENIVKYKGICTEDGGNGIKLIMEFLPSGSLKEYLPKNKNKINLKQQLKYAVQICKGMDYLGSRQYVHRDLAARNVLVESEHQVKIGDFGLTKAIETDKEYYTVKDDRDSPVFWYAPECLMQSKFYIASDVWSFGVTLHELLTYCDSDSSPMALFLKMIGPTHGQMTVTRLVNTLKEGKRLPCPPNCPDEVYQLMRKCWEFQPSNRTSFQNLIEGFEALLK

[7] = biological target: T3, Serine/threonine-protein kinase NLK (Homo sapiens, UniProt Q9UBE8)
T3 sequence (Q9UBE8 whole entry): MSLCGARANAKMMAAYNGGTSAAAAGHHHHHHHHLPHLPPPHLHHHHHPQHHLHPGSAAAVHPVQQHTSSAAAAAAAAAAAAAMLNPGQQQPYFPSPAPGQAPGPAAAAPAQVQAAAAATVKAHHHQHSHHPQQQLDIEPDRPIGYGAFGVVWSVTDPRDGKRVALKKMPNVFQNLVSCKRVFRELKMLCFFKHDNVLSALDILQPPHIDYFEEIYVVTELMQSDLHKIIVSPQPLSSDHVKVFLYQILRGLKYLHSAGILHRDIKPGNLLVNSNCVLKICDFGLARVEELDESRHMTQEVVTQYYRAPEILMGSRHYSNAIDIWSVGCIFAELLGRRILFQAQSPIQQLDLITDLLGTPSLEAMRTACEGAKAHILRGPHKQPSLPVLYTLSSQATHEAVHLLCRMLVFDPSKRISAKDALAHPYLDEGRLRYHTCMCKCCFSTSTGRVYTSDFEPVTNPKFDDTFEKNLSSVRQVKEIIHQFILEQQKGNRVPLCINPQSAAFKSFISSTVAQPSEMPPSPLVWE

Glycine--tRNA ligase = biological target: T4, Glycine--tRNA ligase (Homo sapiens, UniProt P41250)
T4 sequence (P41250 whole entry): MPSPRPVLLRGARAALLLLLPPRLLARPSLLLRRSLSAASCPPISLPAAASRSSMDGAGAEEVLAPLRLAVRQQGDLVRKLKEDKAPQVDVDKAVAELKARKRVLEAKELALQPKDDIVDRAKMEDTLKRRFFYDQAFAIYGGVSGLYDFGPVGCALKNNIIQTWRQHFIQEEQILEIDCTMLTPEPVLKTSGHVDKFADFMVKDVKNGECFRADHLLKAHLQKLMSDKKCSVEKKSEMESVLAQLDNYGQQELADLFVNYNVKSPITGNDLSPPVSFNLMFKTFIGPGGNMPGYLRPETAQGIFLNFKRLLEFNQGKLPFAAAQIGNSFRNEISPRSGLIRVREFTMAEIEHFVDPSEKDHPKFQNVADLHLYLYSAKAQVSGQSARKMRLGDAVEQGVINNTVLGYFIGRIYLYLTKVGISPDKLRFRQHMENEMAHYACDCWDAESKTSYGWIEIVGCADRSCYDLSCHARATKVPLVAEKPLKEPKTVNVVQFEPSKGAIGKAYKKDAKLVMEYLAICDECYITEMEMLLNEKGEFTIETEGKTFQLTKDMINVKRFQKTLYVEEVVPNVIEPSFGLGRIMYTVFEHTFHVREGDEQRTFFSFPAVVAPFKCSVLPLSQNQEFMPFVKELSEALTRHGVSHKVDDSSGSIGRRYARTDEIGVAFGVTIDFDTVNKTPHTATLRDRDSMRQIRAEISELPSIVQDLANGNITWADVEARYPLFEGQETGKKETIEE

[8] = biological target: T5, Uncharacterized protein FLJ45252 (Homo sapiens, UniProt Q6ZSR9); conditions: read-out: Kd apparent; k-562, colo 205, sk-n-be(2) and mv-4-11
T5 sequence (Q6ZSR9 whole entry): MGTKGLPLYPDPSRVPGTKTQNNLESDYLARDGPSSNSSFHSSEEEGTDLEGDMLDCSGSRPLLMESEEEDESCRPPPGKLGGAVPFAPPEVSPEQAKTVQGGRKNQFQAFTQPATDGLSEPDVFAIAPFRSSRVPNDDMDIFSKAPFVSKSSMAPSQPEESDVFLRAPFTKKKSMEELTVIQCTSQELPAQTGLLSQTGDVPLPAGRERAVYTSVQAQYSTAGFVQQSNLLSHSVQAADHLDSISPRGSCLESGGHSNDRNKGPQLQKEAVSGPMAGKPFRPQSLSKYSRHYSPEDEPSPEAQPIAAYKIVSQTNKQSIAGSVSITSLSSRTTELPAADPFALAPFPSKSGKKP
Note: in the data inactive means no Kd found up to 30 µM.

Protein kinase C delta type, sequence (Q05655 whole entry): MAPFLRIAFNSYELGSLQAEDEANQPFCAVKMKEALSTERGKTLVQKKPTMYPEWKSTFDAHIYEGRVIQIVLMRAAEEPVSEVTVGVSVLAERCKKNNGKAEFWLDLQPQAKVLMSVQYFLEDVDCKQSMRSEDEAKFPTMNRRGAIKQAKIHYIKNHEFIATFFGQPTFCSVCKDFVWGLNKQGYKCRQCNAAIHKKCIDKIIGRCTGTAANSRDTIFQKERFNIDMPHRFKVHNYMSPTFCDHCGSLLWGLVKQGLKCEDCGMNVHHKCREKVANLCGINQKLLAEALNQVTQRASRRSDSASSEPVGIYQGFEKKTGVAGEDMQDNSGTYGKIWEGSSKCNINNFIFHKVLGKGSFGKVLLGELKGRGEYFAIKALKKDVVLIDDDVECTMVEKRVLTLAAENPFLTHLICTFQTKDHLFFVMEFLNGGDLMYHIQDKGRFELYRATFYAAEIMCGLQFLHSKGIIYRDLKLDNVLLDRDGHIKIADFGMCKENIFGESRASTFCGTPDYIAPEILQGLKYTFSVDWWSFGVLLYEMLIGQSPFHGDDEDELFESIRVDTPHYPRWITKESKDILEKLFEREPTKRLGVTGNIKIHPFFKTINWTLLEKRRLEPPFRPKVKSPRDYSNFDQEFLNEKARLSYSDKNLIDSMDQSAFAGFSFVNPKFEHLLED

Row | Structure (SMILES) | Kd [1] | Kd [2] | Kd [3] | Kd [4] | Kd [5] | Kd [6] | Kd [7] | Kd (Glycine--tRNA ligase) | Kd [8]
1 | COCCN1CCN(Cc2ccc(-c3n[nH]c4c3C(=O)c3c(NC(=O)NN5CCOCC5)cccc3-4)cc2)CC1 [RGB-286638] | > 30 µM (inactive) | 1.95 µM (active) | 0.318 µM (active) | 1.9 µM (active) | 0.207 µM (active) | 0.139 µM (active) | > 30 µM (inactive) | > 30 µM (inactive) | 0.022 µM (active)
2 | CCc1nc(C(N)=O)c(Nc2ccc(N3CCC(N4CCN(C)CC4)CC3)c(OC)c2)nc1NC1CCOCC1 [GILTERITINIB] | > 30 µM (inactive) | 1.89 µM (active) | > 30 µM (inactive) | 1.47 µM (active) | > 30 µM (inactive) | > 30 µM (inactive) | > 30 µM (inactive) | > 30 µM (inactive) | 0.011 µM (active)
3 | C=CC(=O)Nc1cccc(Nc2nc(Nc3ccc(N4CCN(C(C)=O)CC4)cc3OC)ncc2C(F)(F)F)c1 [ROCILETINIB] | > 30 µM (inactive) | > 30 µM (inactive) | > 30 µM (inactive) | > 30 µM (inactive) | > 30 µM (inactive) | > 30 µM (inactive) | > 30 µM (inactive) | > 30 µM (inactive) | > 30 µM (inactive)
4 | O=C(NOC[C@H](O)CO)c1ccc(F)c(F)c1Nc1ccc(I)cc1F [MIRDAMETINIB] | > 30 µM (inactive) | > 30 µM (inactive) | > 30 µM (inactive) | > 30 µM (inactive) | > 30 µM (inactive) | > 30 µM (inactive) | > 30 µM (inactive) | > 30 µM (inactive) | > 30 µM (inactive)
5 | O=C(NC[C@H](O)CO)c1ccncc1Nc1ccc(I)cc1F [PIMASERTIB] | > 30 µM (inactive) | > 30 µM (inactive) | > 30 µM (inactive) | > 30 µM (inactive) | > 30 µM (inactive) | > 30 µM (inactive) | > 30 µM (inactive) | > 30 µM (inactive) | > 30 µM (inactive)
6 | Cc1cc(-c2cc(OC(=O)c3ccccc3)ccc2Cl)cc2nnc(Nc3ccc(OCCN4CCCC4)cc3)nc12 [TG100-801] | > 30 µM (inactive) | > 30 µM (inactive) | > 30 µM (inactive) | > 30 µM (inactive) | > 30 µM (inactive) | > 30 µM (inactive) | > 30 µM (inactive) | > 30 µM (inactive) | > 30 µM (inactive)
7 | O=C(Nc1ccc(OC(F)(F)F)cc1)c1sccc1NCc1ccnc2ccccc12 [OSI-930] | > 30 µM (inactive) | > 30 µM (inactive) | > 30 µM (inactive) | > 30 µM (inactive) | > 30 µM (inactive) | > 30 µM (inactive) | > 30 µM (inactive) | > 30 µM (inactive) | > 30 µM (inactive)
